From paper PMC10344656, “Plasma pharmacokinetics of tigolaner, emodepside, and praziquantel following topical administration of a combination product (Felpreva®) and of intravenous administration of the individual active ingredients in cats” (Current Research in Parasitology & Vector-borne Diseases, 2023)
Where two headings read alike, the source gives them in different places.

Assays:
in vivo [1] = settings: for T1/2 (plasma half-life): Study 1, single i.v. bolus in tetraglycol, 0.2 mg/kg praziquantel (actual 1.62, 0.21, 0.21 mg/kg), n = 6 per group, HPLC-MS/MS, geometric mean (geometric CV%)
Method: (§1) Altogether three studies were conducted.
(§2) Each AI and treatment were evaluated separately.
(§3) All parameters were derived from individual animal data sets.
(§4) Relative data set weight was always set to 1.
The basic plasma PK characteristics of the active AIs tigolaner, emodepside and praziquantel were profiled after i.v. dosing based on at least the following parameters: Clearance (Cl), V, extrapolated concentration at time of dosing (C0), area under the curve until the last concentration above LoQ (AUClast), AUCinf, dose normalized AUClast and AUCinf (AUClast/D, AUCinf/D), mean residence time (MRT), and half-life. The statistical group mean estimates and suitable statistical parameters describing the distribution (scattering) were provided.

[2] = Plasma pharmacokinetics after single topical Felpreva at 2.5x and 5x dose multiples (Study 2); settings: for AUC(0-inf): AUCinf; for AUC(0-inf) / half-life / Tmax / AUCinf / T1/2: n = 8, geometric mean; for Cmax: n = 8, plasma, geometric mean; for half-life: T1/2, cats; for AUClast/D (Geo CV%) / Cmax/D (Geo CV%): dose-normalised, geometric mean (geometric CV%)
Method: as §1, §2, §3, §4

[3] = Excretion in urine and faeces after topical Felpreva (Study 3); settings: for route of clearance: in vivo
Method: Urine and faeces were collected from cats in Study 3 for analysis of excretion of the AIs. Sampling days per cat were study days 1, 2, 7, 14, 21 and 28. Cats were kept in stainless steel cages with a litter box for the collection of total urine and faeces. The total volume of urine was determined, thereafter 2 aliquots (A + B) of ∼5 ml urine were taken, collected in clear tubes and stored in a freezer set to maintain −18 °C. Faecal samples were weighed and stored in a freezer set to maintain −18 °C.
Urine samples were prepared for analysis by mixing 100 μl urine with 900 μl solvent mixture (as described above), containing labelled tigolaner and praziquantel as internal standards, and then centrifuged. […] The lower limit of quantitation was 1 μg/l.
Faecal samples were extracted by mixing 1 or 5 g faeces with 15 or 40 ml acetonitrile containing the internal standards. The mixture was ultrasonicated and shaken by means of an overhead shaker and then centrifuged. The supernatant was transferred into a flask and the residue extracted again with 5 or 30 ml extraction solvent, shaken, and centrifuged. The extracts were combined and filled up to 20 or 100 ml with extraction solvent containing the internal standards, then filtered. […] The limit of quantitation was 10 μg/kg for each analyte.

[4] = for AUClast/D (Geo CV%) / Cmax/D (Geo CV%): single topical Felpreva 1x, dose-normalised, geometric mean (geometric CV%)
Method: (§7) Altogether three studies were conducted. Cats were treated with Felpreva® (containing emodepside praziquantel and tigolaner) at the recommended dose (14.5 ​mg/kg tigolaner, 3 ​mg/kg emodepside and 12 ​mg/kg praziquantel) or at 2.5× and 5× the recommended dose. For intravenous (i.v.) injection (Study 1) tigolaner, emodepside and praziquantel were formulated in tetraglycol as 8.9%, 1.85% and 7.4% solutions, respectively.
(§8) All cats were healthy and acclimatized for a minimum of 7 days. In studies 1 and 2, cats were individually housed for 8 ​h or 10–12 days following i.v. or topical administration, respectively, to avoid potential cross-contamination between animals. After this period, cats were group-housed by treatment group and sex. In Study 3, cats were socially housed in groups of 3 (same sex/same dose group) in one or more connected similar cages. The exception was when cats were separated for designated study procedures/activities associated with dosing or urine and faeces collection.
(§9) In Study 1 where i.v. administration was performed, 6 animals per treatment group were treated with a slow manual i.v. bolus using a catheter placed in the Vv. saphena medialis or Vv. saphena lateralis, and suitable 1-ml single-use syringes. Catheters were placed immediately prior to administration and removed immediately afterwards. Tigolaner (in tetraglycol, C5H9O(OC2H4)nOH, CAS no. 31692-85-0) was administered at 1.5 ​mg/kg (volume: 70–80 ​μl), emodepside (in tetraglycol) was administered at 0.3 ​mg/kg (volume 40–70 ​μl) and praziquantel (in tetraglycol) was administered at 0.2 ​mg/kg (volume: 40–60 ​μl). Low dose rates were administered intravenously to ensure tolerance of an i.v. bolus. Where treatment was administered topically, a spot-on application was manually applied at the base of the head while the hair was divided with 2 fingers. In all studies, topical doses were calculated using individual BWs and the nominal content of the three AIs. The AIs were administered based on the licensed therapeutic dose of 14.5, 3 and 12 ​mg/kg BW for tigolaner, emodepside and praziquantel, respectively. Cats were restrained for approximately a minute following administration to aid spread of the applied formulation and to prevent any possible run-off. […] Cats were closely observed for 1 ​h after dosing and at least once daily thereafter.
(§10) Blood samples of ∼0.5 ​ml (Studies 1 and 2) and 1.0 ​ml (Study 3) were collected into EDTA K2E tubes from the Vv. cephalica antebrachii or another suitable vein. Plasma was harvested following centrifugation (10 ​°C, 3220× g for 10 ​min) and subsequently stored frozen at −18 ​°C.
(§11) Analysis of all samples was performed after finalisation of the biological part of the study. The plasma samples were deproteinised by mixing 100 ​μl of plasma with 900 ​μl of a precipitation mixture of 0.040 ​g ammonium acetate in 100 ​ml water plus 0.1 ​ml formic acid and 600 ​ml acetonitrile containing the internal standards praziquantel-cyclohexyl-d11and [^13C2H6] tigolaner and subsequent centrifugation. Analysis of the AIs tigolaner, emodepside, and praziquantel was conducted by using High Performance Liquid Chromatography with an Agilent Zorbax Eclipse Plus C18 Rapid Resolution, 2.1 ​× ​50 ​mm, 1.8 ​μm column, water/formic acid (1000/0.120, v/v) ​+ ​10 ​mMol/l ammonium formate and methanol/formic acid (1000/0.120, v/v) ​+ ​10 ​mMol/l ammonium formate as mobile phase (0–0.5 ​min at 90/10 v/v, gradient to 0/100 v/v at 3–3.5 ​min and gradient to 90/10 v/v at 4–5 ​min) at 60 ​°C with a flow of 0.6 ​ml/min. Detection was performed by Tandem Mass Spectrometry (HPLC-MS/MS) using a Sciex API 5500 mass spectrometer in the positive ionisation mode.

in vivo [5] = settings: topical or ocular
Method: as §7, §8, §9, §10, §11

[6] = in vivo; cited from earlier work
Excerpt: (§5) Felpreva® combines the established Profender® AIs, emodepside and praziquantel with tigolaner.

[7] = set-up: method as in Jacquot et al., 2021; settings: cats, Nexgard Combo spot-on, ref Jacquot et al., 2021; cited from earlier work
Excerpt: as §5

fleas and ticks = settings: cats, single topical dose, minimum recommended dose 14.5 mg/kg body weight, ref Cvejić et al., 2022a, b; Mencke et al., 2023; cited from earlier work
Excerpt: (§6) Tigolaner, from the bis-pyrazole class of compounds has potent antiparasitic properties acting against γ-aminobutyric acid- (GABA-) and glutamate-gated chloride channels with significant selectivity for insect neurons over mammalian neurons ([EMA, 2022]). Tigolaner has a high potency against insects and acarids by exposure via their feeding, i.e. fleas and ticks that initiate feeding will be exposed to the AI ([Cvejić et al., 2022a], [b]; [Mencke et al., 2023]). A single tigolaner dose administered topically at the minimum recommended dose of 14.5 mg/kg body weight (BW) on cats provides 13 we ...

fleas = settings: cats, topical, ref EMA, 2022; Mencke et al., 2023; cited from earlier work
Excerpt: as §6

[8] = Domestic Shorthair, in vivo, iv, 0.2 mg/kg
[9] = 2.5x dose relative to 1x dose, topical Felpreva, cats
[10] = 5x dose relative to 1x dose, topical Felpreva, cats
[11] = cats, single topical Felpreva 2.5x
[12] = cats, single topical Felpreva 5x
[13] = topical Felpreva, dose rates from 1x to 2.5x and 5x, cats, Cmax/D and AUClast/D
[14] = cats, 1.5 mg/kg tigolaner, 0.2 mg/kg emodepside
[15] = cats, single i.v. bolus, 1.5 mg/kg tigolaner, 0.2 mg/kg emodepside, 0.2 mg/kg praziquantel, n = 6, geometric mean (geometric CV%)
[16] = cats, Study 2, single topical Felpreva 2.5x, 0.37 ml/kg
[17] = cats, Study 2, single topical Felpreva 5x, 0.74 ml/kg

## CC(C)C[C@H]1C(=O)O[C@H](Cc2ccc(N3CCOCC3)cc2)C(=O)N(C)[C@@H](CC(C)C)C(=O)O[C@H](C)C(=O)N(C)[C@@H](CC(C)C)C(=O)O[C@H](Cc2ccc(N3CCOCC3)cc2)C(=O)N(C)[C@@H](CC(C)C)C(=O)O[C@H](C)C(=O)N1C [Emodepside, emodepside]
In vivo [1]; [8]
  AUC(0-inf): 1600 ng·h/mL
  AUC(0-t): 1500 ng·h/mL
  half-life: 8.43 days
In vivo [1]; in vivo, iv, 0.2 mg/kg
  Vd: 38.2 L/kg
  clearance: 2.18 mL/min/kg
[2]; [9]
  Ratio AUClast/D: 0.64
  Ratio Cmax/D: 0.60
[2]; [10]
  Ratio AUClast/D: 0.66
  Ratio Cmax/D: 0.53
[2]; European Shorthair (ESH), in vivo, topical or ocular, cats, Study 2, single topical Felpreva 2.5x, 0.37 ml/kg
  AUC(0-inf): 36100 ng·h/mL
[2]; European Shorthair (ESH), in vivo, topical or ocular, cats, Study 2, single topical Felpreva 5x, 0.74 ml/kg
  AUC(0-inf): 62500 ng·h/mL
[2]; European Shorthair (ESH), in vivo, topical or ocular, Cmax, cats, Study 2, single topical Felpreva 5x, 0.74 ml/kg (72.5 mg/kg tigolaner, 15 mg/kg emodepside, 60 mg/kg praziquantel)
  Cmax: 106 µg/L
[2]; European Shorthair (ESH), in vivo, topical or ocular, Study 2, single topical Felpreva 2.5x, 0.37 ml/kg
  half-life: 13.7 days
[2]; European Shorthair (ESH), in vivo, topical or ocular, Study 2, single topical Felpreva 5x, 0.74 ml/kg
  half-life: 13.7 days
[2]; European Shorthair (ESH), in vivo, topical or ocular, Tmax, cats, Study 2, single topical Felpreva 2.5x, 0.37 ml/kg
  Tmax: 47.8 h
[2]; European Shorthair (ESH), in vivo, topical or ocular, Tmax, cats, Study 2, single topical Felpreva 5x, 0.74 ml/kg
  Tmax: 61.9 h
[2]; [11]
  AUClast/D (Geo CV%): 4.32 (44.2) h∗kg∗μg/l/μg
  Cmax/D (Geo CV%): 0.009 (71.4) kg∗μg/l/μg
[2]; [12]
  AUClast/D (Geo CV%): 4.5 (36.5) h∗kg∗μg/l/μg
  Cmax/D (Geo CV%): 0.008 (35.7) kg∗μg/l/μg
[2]; [13]
  dose proportionality of plasma PK (rate and extent): less than proportional increase
[3]
  route of clearance: mainly cleared via the faeces
[4]; cats
  AUClast/D (Geo CV%): 6.79 (38.7) h∗kg∗μg/l/μg
  Cmax/D (Geo CV%): 0.015 (61.0) kg∗μg/l/μg
In vivo [5]; Domestic Shorthair (DSH)
  Tmax: 36 h
In vivo [5]; Domestic Shorthair
  AUC(0-inf): 20600 ng·h/mL
  AUC(0-t): 20500 ng·h/mL
  Cmax: 44.3 ng/mL
  Tmax: 36.9 h
  bioavailability: 90%
  half-life: 14.5 days

## O=C(C1CCCCC1)N1CC(=O)N2CCc3ccccc3C2C1 (stereo not shown) [Praziquantel, praziquantel]
In vivo [1]; [14]
  T1/2 (plasma half-life): 1.8 (94.8) h
In vivo [1]; in vivo
  Cl_pred (systemic clearance): 1.861 (32.2) l/h/kg
  Vz_pred (volume of distribution): 4.95 (142.2) l/kg
[2]; [11]
  AUClast/D (Geo CV%): 0.19 (47.7) h∗kg∗μg/l/μg
  Cmax/D (Geo CV%): 0.003 (51.7) kg∗μg/l/μg
[2]; [12]
  AUClast/D (Geo CV%): 0.25 (22.2) h∗kg∗μg/l/μg
  Cmax/D (Geo CV%): 0.003 (39.8) kg∗μg/l/μg
[2]; in vivo
  Ratio Cmax/D: 0.75
  dose proportionality of plasma PK (rate and extent): less than proportional increase
[3]
  route of clearance: equally cleared via the faeces and via the urine for males
[4]; cats
  AUClast/D (Geo CV%): 0.30 (19.9) h∗kg∗μg/l/μg
  Cmax/D (Geo CV%): 0.004 (57.2) kg∗μg/l/μg
[4]; in vivo
  AUCinf (total plasma exposure): 3.7 (19.6) mg∗h/l
  AUClast: 3.6 (19.7) mg∗h/l
  Tmax: 4.8 (107.7) h
  absolute bioavailability after topical application: 48%
  bioavailability after topical application, first 24 h: 6%
  plasma elimination half-life: 10 days
[6]
  Tmax: 18.7 ± 47 h
  maximum serum concentration: 61.3 ± 44.1 µg/L
  serum half-life: 4.1 ± 1.5 days
[7]
  serum half-life: 4.3 days

## Cn1nc(C(F)(F)C(F)(F)F)c(C(F)(F)F)c1-n1cc(-c2ccc(Cl)c(C(=O)NC3(C#N)CC3)c2)cn1 [Tigolaner, tigolaner]
In vivo [1]; [14]
  T1/2 (plasma half-life): 515.4 (54.2) h
In vivo [1]; [15]
  AUCinf: 300.1 (29.1) mg∗h/l
  AUClast: 298 (29.5) mg∗h/l
  Cl_pred (systemic clearance): 0.005 (31.7) l/h/kg
  Vz_pred (volume of distribution): 4.00 (56.5) l/kg
[2]; [9]
  Ratio AUClast/D: 1.05
  Ratio Cmax/D: 0.91
[2]; [10]
  Ratio AUClast/D: 0.76
  Ratio Cmax/D: 0.58
[2]; cats, Study 2, single topical Felpreva 2.5x, 0.37 ml/kg (36.25 mg/kg tigolaner, 7.5 mg/kg emodepside, 30 mg/kg praziquantel)
  Cmax: 2496.9 µg/L
[2]; [16]
  AUCinf: 3308 mg∗h/l
  T1/2: 23.75 days
  Tmax: 440.4 h
[2]; cats, Study 2, single topical Felpreva 5x, 0.74 ml/kg (72.5 mg/kg tigolaner, 15 mg/kg emodepside, 60 mg/kg praziquantel)
  Cmax: 3574.2 µg/L
[2]; [17]
  AUCinf: 5393 mg∗h/l
  T1/2: 23.47 days
[2]; [11]
  AUClast/D (Geo CV%): 108.66 (142.5) h∗kg∗μg/l/μg
  Cmax/D (Geo CV%): 0.084 (137.8) kg∗μg/l/μg
[2]; [12]
  AUClast/D (Geo CV%): 78.5 (30.7) h∗kg∗μg/l/μg
  Cmax/D (Geo CV%): 0.053 (34.0) kg∗μg/l/μg
[2]; [13]
  dose proportionality of plasma PK (rate and extent): less than proportional increase
[3]; cats, Study 3, topical administration, 28 days
  extent of metabolism (conclusion from excretion): poorly metabolized
[4]; cats, Study 1, Fabs = AUCinf/D spot-on / AUCinf/D i.v., group geometric means
  absolute bioavailability after topical application: 57%
[4]; cats
  AUClast/D (Geo CV%): 103.16 (32.9) h∗kg∗μg/l/μg
  Cmax/D (Geo CV%): 0.092 (37.9) kg∗μg/l/μg
Fleas and ticks
  duration of flea and tick control: 13 weeks
fleas
  onset of efficacy, fleas already on the cat prior to treatment: ≤ 12 h
  onset of efficacy, new flea infestation, after two months: ≤ 24 h
  onset of efficacy, new flea infestation, for two months: ≤ 8 h
